“And” between values parts separate entries of the source, which are not always exact repeats. Equal entries are not always repeated.
Columns and labels:
[1] = tested on: HIF1 reporter activity; test: HIF1 luciferase reporter assay; type: cell-based, human; conditions: A2780 and A375 cells, 20% or 1% O2, 24 h
Experimental: Fig. 7 NHWD-870 inhibited CSF1 expression through suppressing BRD4 and HIF1α in tumor cells. a, b Representative western blot analysis of control (Ctrl) and BRD4 knockout (KO) A375 and A2780 cells exposed to 20% or 1% O2 for 24 hours. Selected from three independent experiments. c, d Representative western blot analysis of A375 and A2780 cells treated with DMSO or 25 nM NHWD-870 and exposed to 20% or 1% O2 for 24 h. Selected from three independent experiments. e Relative HIF1 luciferase reporter activity in control (Ctrl), BRD4 knockout (KO), or NHWD-870 treated A375 and A2780 cells exposed to 20% or 1% O2 for 24 h. Data are presented as mean ± SEM from three independent experiments. f RT-qPCR analyses of CSF1 in control (Ctrl), BRD4 knockout (KO), or NHWD-870 treated A375 and A2780 cells exposed to 20% or 1% O2 for 24 hours. Data are presented as mean ± SEM from three independent experiments. g RT-qPCR analyses of HIF1A in A375 or A2780 cells treated with 15 nM NHWD-870 or DMSO control for 24 h. Data are presented as mean ± SEM from three independent experiments. h Genome browser view of BRD4 ChIP-seq peaks on the HIF1A promoter. Shown are BRD4 ChIP and input control of A375 cells (top panel) and BRD4 ChIP of MDA-MB231 cells treated with DMSO or JQ-1 (bottom panel). i BRD4 ChIP-qPCR analyses of the HIF1A promoter in A2780 cells treated with DMSO or NHWD-870 for 72 h. Data are presented as mean ± SEM from three independent experiments. j RT-qPCR analyses of CSF1 in A375 and A2780 cells were transiently transduced with HIF1α, then exposed to 1% O2 for 24 h. Ctrl, Control. Data are presented as mean ± SEM from three independent experiments. k A model showing the effects of NHWD-870 on cancer cell-TAM interaction. NHWD-870 inhibits the proliferation and survival of TAMs partly by inhibiting BRD4 activity, HIF1α expression, and CSF1 secretion by tumor cells, and downregulating CSF1R mediated ERK and PI3K/AKT signaling in TAMs. p values were calculated using two-tailed, unpaired t tests in this figure. *p < 0.05; **p < 0.01; ***p < 0.001. Source data are provided as a Source Data file.
Supplementary Figure 15. […]
Data in (a) and (c-e) are presented as mean ± SEM from 3 independent experiments. p values were calculated using two-tailed, unpaired t tests. **, p<0.01; ***, p<0.001. Source data are provided as a Source […]
All patients had […]
undergone complete cytoreductive surgery.
14. Immunohistochemical staining. Paraffin-embedded implantation samples isolated from peritoneal metastasis of EOC patients (128 cases) were sectioned at a thickness of 4μm. To stain CD68, CSF1 and p-BRD4, the slides were first deparaffinized in xylene and rehydrated with gradient concentrations of alcohol under standard procedures. After rehydration, the slides were immersed in 0.01 mol/L citrate buffer (pH 6.0) and heated (95°C) for 15 min for antigen retrieval.
Then, the samples were incubated with 3% hydrogen peroxide (H2O2) for 10 minutes followed by 10% normal goat serum blocking for 10 minutes. Subsequently, the sections were incubated with rabbit polyclonal anti-human CD68 antibody (dilution 1:100) (sc-20060, Santa Cruz Biotechnology) and anti-human p-BRD4

[2] = tested on: A375 melanoma cells; test: AlamarBlue assay, A375; type: cell-based, human; conditions: for Cellular activity in melanoma cells (A375), alamarBlue: Fig.1g, replicates
Experimental: 3. AlamarBlue assay. AlamarBlue was made by resazurin sodium salt (Sigma, Cat
# 199303) dissolved in PBS.
NCI-H211, MDA-MB231 and A375 cells were plated in 96-well plates at approximately 30% confluence and left overnight to adhere. In the following day, […]
of treatment, 10 μl AlamarBlue reagent (0.3 mg/ml) was added to each well, and after 18h, the florescence intensity in each well was measured using a top-reading fluorescent plate reader with excitation at 530 nm and emission at 590 nm. […]

[3] = tested on: human melanoma patient-derived xenograft (PDX); test: Human melanoma patient-derived xenograft (PDX) tumor growth; type: in vivo, NSG mice; conditions: Fig.3f, 1.5mg/kg, individual animals, in mm³ (unit assumed)
Description: PO, oral administration; QD, once daily; BID, twice daily. b–d Tumor growth curves for A2780 ovarian tumor (n = 5) (b), TMD8 large B cell lymphoma (n = 6) (c), and B16F10 melanoma (n = 5) (d) bearing mice treated with the indicated compounds once daily for 11-21 days. e, f Tumor growth curves for A375 melanoma (n = 6) (e), and patient-derived xenograft (PDX) of melanoma (n = 5) (f) bearing mice treated with the indicated compounds once daily (5 days on, 2 days off) for 21 days. For d–f, NHWD-870 used is NHWD-870-HCl synthesized using Suzuki coupling route. Data are presented as mean ± SEM in (a, b, d, f) and mean + SEM in (c, e). p values were calculated using two-tailed, unpaired t tests. *p < 0.05; **p < 0.01; ***p < 0.001. Source data are provided as a Source Data file.
4–6 weeks old female BALB/c nude mice were used for most experiments, with the exception of 6–8 weeks old female C57BL/6 mice were used for B16F10 experiments, and 6–8 weeks old male BALB/c nude mice and SD rats were used for pharmacokinetic experiments. All animals were purchased from Shanghai SIPPR-Bk Lab Animal Co., Ltd. All animals were housed under a regimen of 12 h light/12 h dark cycles and specific pathogen-free conditions. 5×10^6 NCI-H526, ES-2, MDA-MB231, A2780, A375, B16F10, and TMD-8 cells (0.1 ml) were injected subcutaneously into female nude mice. The melanoma patient-derived xenograft model was derived from a human melanoma sample (BRAF, NARS and NF1 wild type, and p53 mutant) removed from a patient in Xiangya Hospital. Surgically removed tumor fragments were implanted subcutaneously into female NSG mice. When the tumors grew to ~1000 mm^3, they were harvested and cryopreserved or immediately re-implanted for expansion or experiments. Mouse body weight and tumor sizes were measured every 3 days. Once the tumors grew to 150–200 mm^3, mice were treated with the compounds as described in the Figures. 1 × 10^6 A2780 cells (1 ml) were injected into the abdominal cavity of nude mice. Ascitic volume and tumor weight were measured by an electronic balance. All the procedures were evaluated and approved by the Institutional Animal Care and Use Committee of Central South University and Yale University.

[4] = tested on: TAMs; test: Transwell co-culture of pretreated A2780 cells and TAMs with CSF1 or anti-CSF1R antibodies; type: cell-based, mouse; conditions: co-culture with pretreated A2780 cells, MCSF-1 10ng/ml where added
Experimental: Fig. 6 CSF1/CSF1R signaling is critical for the tumor inhibitory effects of NHWD-870 and CSF1 induced ovarian cancer growth depends on macrophages. a Number of TAMs after treatment with the indicated concentration of CSF1 for 48 h. Data are presented as mean ± SEM from three independent experiments. b–d Schematics of the experiments (b). A2780 cells (pre-treated with DMSO or 100 nM NHWD-870 for 48 h) were seeded into the top chamber (transwell size: 0.4 μm), and TAMs (Mac, 40,000 cells per 24-well) in medium with PBS or 10 ng/ml CSF1 (c), or 50 ng/ml IgG or anti-CSF1R antibodies (d), were seeded into the bottom chamber. Shown are quantification of TAMs (c, d). Data are presented as mean ± SEM from three independent experiments. e Representative western blot analysis of A2780 cells stably transfected with CSF1 or empty vector (EV). Selected from three independent experiments. f Schematics of the animal experiments using an orthotopic mouse OC model, established by intraperitoneally injecting 1 × 10^6 (g–j) or 2 × 10^6 (k–m) human A2780 cells overexpressing CSF1 or control into female recipient nude mice. Mice were then treated with/without liposomal clodronate (LC) for 45 days (g–j) or treated with/without NHWD-870 (PO, QD, 3 mg/kg) for 37 days (k–m). g Increased mouse body weight was measured at the indicated time points (day 0-45 after LC treatment). h–j Net tumor weight (h), ascitic fluid volumes (i) tumor implantations in peritoneum, omentum and pevic cavity (j) were measured at day 45 from LC treatment. k–m Net tumor weight (k), ascitic fluid volumes (l) tumor implantations in peritoneum, omentum and pevic cavity (m) were measured at day 37 after NHWD-870 treatment. For g–m, data are presented as mean ± SEM from five different mice. p values were calculated using two-tailed, unpaired t tests in this figure. n.s, not significant; *p < 0.05; **p < 0.01; and ***p < 0.001. Source data are provided as a Source Data file.
CD45^+CD11b^+F4/80^+ TAMs were isolated from peritoneal metastasis of A2780 tumor-bearing mice and cultured in RPMI-1640 supplemented with 10% FBS, 1% penicillin/streptomycin, and 0–50 ng/ml CSF1 (R&D Systems) as indicated according to standard protocols. In the cancer cell-macrophage co-culture experiments, CSF1 was not added. In the transwell (Corning, pore size, 0.4 μm) co-culture experiments, tumor cells were placed into the upper chamber, and TAMs were seeded into the lower chamber.

Cc1sc2c(c1C)C(c1ccc(Cl)cc1)=N[C@@H](CC(=O)Nc1ccc(O)cc1)c1nnc(C)n1-2 [OTX-015] was tested, and the HIF1 reporter activity [1] was “significantly decreased HIF1 reporter activity”, the “Cellular activity in melanoma cells (A375), alamarBlue” value (from here on “Cellular activity in melanoma cells”) ([2]; concentration(nM) 0.21442) was 0.2687 and 0.138 and the “Cellular activity in melanoma cells” value ([2]; concentration(nM) 0.31236) was 1.399 and 1.862. The “Cellular activity in melanoma cells” value ([2]; concentration(nM) 0.4103) was 3 and 0.4387, the “Cellular activity in melanoma cells” value ([2]; concentration(nM) 0.6032) was 12.3903 and 10.5044 and the “Cellular activity in melanoma cells” value ([2]; concentration(nM) 1.2043) was 24.9941 and 17.1565. The “Cellular activity in melanoma cells” value ([2]; concentration(nM) 1.8024) was 69.0356 and 72.751, the “Cellular activity in melanoma cells” value ([2]; concentration(nM) 2.4) was 91.1738 and 98.6047 and the “Cellular activity in melanoma cells” value ([2]; concentration(nM) 3) was 100.838 and 100.296. It also gave an IC50 ([2]; Homo sapiens, A-375, nM printed in b8, the picture prints no unit, read-out: IC50, cellular activity in A375 (alamarBlue)) of 34.8 nM.

In the case of Cc1nnn(C)c1-c1cnc2c3c4cnn(C)c4ccc3n([C@H](c3ccccc3)C3CCOCC3)c2c1.Cl [870-HCI], the Tumor volume ([3]; day 0) is reported as 0, the Tumor volume ([3]; day 3) is reported as 76 and 83 and 79 and 110 and 130 and the Tumor volume ([3]; day 7) is reported as 143 and 132 and 174 and 201 and 230. For the same molecule, the Tumor volume ([3]; day 11) was 195 and 185 and 250 and 289 and 310, the Tumor volume ([3]; day 15) was 264 and 276 and 364 and 396 and 423 and the Tumor volume ([3]; day 19) was 349 and 303 and 474 and 530 and 503. For the same molecule, the Tumor volume ([3]; day 21) was 425 and 403 and 503 and 684 and 603.

B1: MCSF-1 (protein, UniProt P09603 33-554, looked up)
Macrophage colony-stimulating …: EEVSEYCSHMIGSGHLQSLQRLIDSQMETSCQITFEFVDQEQLKDPVCYLKKAFLLVQDIMEDTMRFRDNTPNAIAIVQLQELSLRLKSCFTKDYEEHDKACVRTFYETPLQLLEKVKNVFNETKNLLDKDWNIFSKNCNNSFAECSSQDVVTKPDCNCLYPKAIPSSDPASVSPHQPLAPSMAPVAGLTWEDSEGTEGSSLLPGEQPLHTVDPGSAKQRPPRSTCQSFEPPETPVVKDSTIGGSPQPRPSVGAFNPGMEDILDSAMGTNWVPEEASGEASEIPVPQGTELSPSRPGGGSMQTEPARPSNFLSASSPLPASAKGQQPADVTGTALPRVGPVRPTGQDWNHTPQKTDHPSALLRDPPEPGSPRISSLRPQGLSNPSTLSAQPQLSRSHSSGSVLPLGELEGRRSTRDRRSPAEPEGGPASEGAARPLPRFNSVPLTDTGHERQSEGSFSPQLQESVFHLLVPSVILVLLAVGGLLFYRWRRRSHQEPQRADSPLEQPEGSPLTQDDRQVELPV
B1 was tested, and the “Number of TAMs (Fig.6c)” value ([4]; time 0) was 5, the “Number of TAMs (Fig.6c)” value ([4]; time 24) was 6.1 and 7 and 6.4 and the “Number of TAMs (Fig.6c)” value ([4]; time 48) was 18.4 and 16.8 and 17.9. For the same molecule, the “Number of TAMs (Fig.6c)” value ([4]; time 72) was 34.1 and 29.5 and 32.5.

— PMC7156724, “Potent BRD4 inhibitor suppresses cancer cell-macrophage interaction” (Nature Communications, 2020)
